Source: US8927500B2, “Peptidomimetic macrocycles” (Aileron Therapeutics, Inc., priority 2012, dated 2015)
Read-outs that look alike come from different tables or passages of the source. Each block holds one compound with its values, some of them ahead of it. Where a SMILES comes first, the peptide text is derived from it. Bridges are numbered along the chain shown (N, C = ends). [ ]: non-standard residue; d: D form. Trp(6-Cl) = N[C@@H](Cc1c[nH]c2cc(Cl)ccc12)C(=O)O; Phe(3,4-F2) = N[C@@H](Cc1ccc(F)c(F)c1)C(=O)O; R8 = C=CCCCCCC[C@@](C)(N)C(=O)O; Cba = N[C@@H](CC1CCC1)C(=O)O; S5 = C=CCCC[C@](C)(N)C(=O)O; Nle = CCCC[C@H](N)C(=O)O

Assays:
SJSA-1 cells = experiment: Cell lysis by peptidomimetic macrocycles (LDH release); type: cell-based; details: 1 h at 37C
MDM2 = MDM2 (Homo sapiens, UniProt Q00987); experiment: Competitive fluorescence polarization assay for MDM2; type: binding; details: competitive FP assay, MDM2
Chain of MDM2 (Q00987 1-125): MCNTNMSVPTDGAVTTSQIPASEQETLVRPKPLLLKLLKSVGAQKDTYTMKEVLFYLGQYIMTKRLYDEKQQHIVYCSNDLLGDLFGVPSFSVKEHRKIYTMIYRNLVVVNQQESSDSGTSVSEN
Procedure: Dilute 1 mM (in 100% DMSO) of FAM labeled linear peptide with DMSO to 100 μM (dilution 1:10). Then, dilute from 100 μM to 10 μM with water (dilution 1:10) and then dilute with FP buffer from 10 μM to 40 nM (dilution 1:250). This is the working solution which will be a 10 nM concentration in well (dilution 1:4). […] Then, dilute from 5 mM to 500 μM with H2O (dilution 1:10) and then dilute with FP buffer from 500 μM to 20 μM (dilution 1:25).
Dilute 1 mM (in 100% DMSO) of FAM labeled linear peptide with DMSO to 100 μM (dilution 1:10). Then, dilute from 100 μM to 10 μM with water (dilution 1:10) and then dilute with FP buffer from 10 μM to 40 nM (dilution 1:250). This is the working solution which will be a 10 nM concentration in well (dilution 1:4). […] Dilute 10 mM (in 100% DMSO) with DMSO to 5 mM (dilution 1:2). Then, dilute from 5 mM to 500 μM with H2O (dilution 1:10) and then dilute with FP buffer from 500 μM to 20 μM (dilution 1:25). […] Transfer 10 μl of serial diluted unlabeled peptides to each well which is filled with 20 μl of 300 nM of protein. • 7. Add 10 μl of 10 nM (4×) of FAM labeled peptide into each well and incubate for 3 hr to read.

MDMX = target: T1, MDMX (Homo sapiens, UniProt O15151); experiment: Competitive fluorescence polarization assay for MDMX; type: binding; details: competitive FP assay
T1 sequence (O15151 1-125): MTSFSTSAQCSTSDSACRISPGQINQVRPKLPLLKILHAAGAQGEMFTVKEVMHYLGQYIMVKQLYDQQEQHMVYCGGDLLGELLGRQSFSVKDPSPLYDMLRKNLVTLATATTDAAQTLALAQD

Caspase 3 = Caspase 3 detection assay in SJSA1 cells; type: cell-based; details: 48 h, Caspase 3 activation over DMSO-treated cells; for caspase 0.3 uM: 0.3 uM peptide; for caspase 3 uM: 3 uM peptide; for caspase 10 uM: 10 uM peptide; for caspase 30 uM: 30 uM peptide; for caspase 1 uM: 1 uM peptide

SMILES: CC[C@H](C)[C@H](NC(=O)[C@H](C)NC(=O)[C@H](C)NC(=O)[C@]1(C)CCCC=CCCCCCC[C@@](C)(NC(=O)[C@H](Cc2ccccc2)NC(=O)[C@@H](NC(=O)[C@H](CC(C)C)NC(C)=O)[C@@H](C)O)C(=O)N[C@@H](C)C(=O)N[C@@H](Cc2ccc(O)cc2)C(=O)N[C@@H](Cc2c[nH]c3ccccc23)C(=O)N[C@@H](C)C(=O)N[C@@H](C)C(=O)N[C@@H](CC(C)C)C(=O)N1)C(=O)N[C@H](C)C(N)=O (single isomer, unassigned) [compound 203]
6.25 uM % Lysed cells (1 h LDH) (SJSA-1 cells): 0%
25 uM % Lysed cells (1 h LDH) (SJSA-1 cells): 2%
50 uM % Lysed cells (1 h LDH) (SJSA-1 cells): 2%
IC50 (MDM2; read-out: IC50 (MDM2)): 10 to 100 nM
Ki (MDM2; read-out: Ki (MDM2)): < 10 nM
IC50 (MDMX; read-out: IC50 (MDMX)): 100 to 1000 nM
Ki (MDMX; read-out: Ki (MDMX)): 10 to 100 nM
caspase 0.3 uM (Caspase 3): 1
caspase 3 uM (Caspase 3): 3
caspase 10 uM (Caspase 3): 12
caspase 30 uM (Caspase 3): 10

SMILES: CC(=O)N[C@@H](CCC(=O)O)C(=O)N[C@H](C(=O)N[C@@H](Cc1ccccc1)C(=O)N[C@]1(C)CCCCCCC=CCCC[C@@](C)(C(=O)N[C@@H](C)C(=O)N[C@@H](C)C(=O)N[C@@H](C)C(=O)N[C@@H](C)C(=O)N[C@@H](C)C(=O)N[C@H](C)C(N)=O)NC(=O)[C@H](CC(C)C)NC(=O)[C@H](CCC(N)=O)NC(=O)[C@H](C)NC(=O)[C@H](Cc2c[nH]c3ccccc23)NC(=O)[C@H](Cc2ccc(O)cc2)NC(=O)[C@H](CCC(=O)O)NC1=O)[C@@H](C)O (single isomer, unassigned) [compound 341]
6.25 uM % Lysed cells (1 h LDH) (SJSA-1 cells): 0%
25 uM % Lysed cells (1 h LDH) (SJSA-1 cells): 0%
50 uM % Lysed cells (1 h LDH) (SJSA-1 cells): 0%
IC50 (MDM2; IC50 (MDM2)): 10 to 100 nM
Ki (MDM2; Ki (MDM2)): < 10 nM
IC50 (MDMX; IC50 (MDMX)): 10 to 100 nM
Ki (MDMX; Ki (MDMX)): < 10 nM
caspase 0.3 uM (Caspase 3): 3
caspase 1 uM (Caspase 3): 8
caspase 3 uM (Caspase 3): 11
caspase 10 uM (Caspase 3): 14
caspase 30 uM (Caspase 3): 21

SMILES: CC(=O)N[C@@H](CC(C)C)C(=O)N[C@H](C(=O)N[C@@H](Cc1ccccc1)C(=O)N[C@]1(C)CCCCCCC=CCCC[C@@](C)(C(=O)N[C@@H](CO)C(=O)N[C@@H](C)C(=O)N[C@@H](C)C(N)=O)NC(=O)[C@H](CC(C)C)NC(=O)[C@H](C)NC(=O)[C@H](C)NC(=O)[C@H](Cc2c[nH]c3ccccc23)NC(=O)[C@H](Cc2c[nH]cn2)NC(=O)[C@H](C)NC1=O)[C@@H](C)O [compound 197] (Ac-LTF[R8]AHWAAL[S5]SAA-NH2; staple 4-11)
6.25 uM % Lysed cells (1 h LDH) (SJSA-1 cells): 1%
25 uM % Lysed cells (1 h LDH) (SJSA-1 cells): −1%
50 uM % Lysed cells (1 h LDH) (SJSA-1 cells): −2%
IC50 (MDM2; IC50 (MDM2)): < 10 nM
Ki (MDM2; Ki (MDM2)): < 10 nM
IC50 (MDMX; IC50 (MDMX)): 100 to 1000 nM
Ki (MDMX; Ki (MDMX)): 10 to 100 nM
caspase 0.3 uM (Caspase 3): 1
caspase 3 uM (Caspase 3): 1
caspase 10 uM (Caspase 3): 10
caspase 30 uM (Caspase 3): 20

SMILES: CC(=O)N[C@@H](CC(C)C)C(=O)N[C@H](C(=O)N[C@@H](Cc1ccccc1)C(=O)N[C@]1(C)CCCCCCC=CCCC[C@@](C)(C(=O)N[C@@H](C)C(=O)N[C@@H](C)C(=O)N[C@@H](C)C(=O)N[C@@H](C)C(=O)N[C@@H](C)C(=O)N[C@@H](C)C(=O)N[C@H](C)C(N)=O)NC(=O)[C@H](CC(C)C)NC(=O)[C@H](CCC(N)=O)NC(=O)[C@H](C)NC(=O)[C@H](Cc2c[nH]c3ccccc23)NC(=O)[C@H](Cc2ccc(O)cc2)NC(=O)[C@H](CCC(=O)O)NC1=O)[C@@H](C)O (single isomer, unassigned) [compound 343]
6.25 uM % Lysed cells (1 h LDH) (SJSA-1 cells): 0%
25 uM % Lysed cells (1 h LDH) (SJSA-1 cells): 0%
50 uM % Lysed cells (1 h LDH) (SJSA-1 cells): 0%
IC50 (MDM2; IC50 (MDM2)): 10 to 100 nM
Ki (MDM2; Ki (MDM2)): < 10 nM
IC50 (MDMX; IC50 (MDMX)): 10 to 100 nM
Ki (MDMX; Ki (MDMX)): < 10 nM
caspase 0.3 uM (Caspase 3): 1
caspase 1 uM (Caspase 3): 1
caspase 3 uM (Caspase 3): 2
caspase 10 uM (Caspase 3): 5
caspase 30 uM (Caspase 3): 29

SMILES: CC(=O)N[C@@H](CC(C)C)C(=O)N[C@H](C(=O)N[C@@H](Cc1ccccc1)C(=O)N[C@]1(C)CCCCCC/C=C/CCC[C@@](C)(C(=O)N[C@@H](CO)C(=O)N[C@@H](C)C(=O)N[C@@H](C)C(N)=O)NC(=O)[C@H](CC(C)C)NC(=O)[C@H](CCC(N)=O)NC(=O)[C@H](C)NC(=O)[C@H](Cc2c[nH]c3cc(Cl)ccc23)NC(=O)[C@H](Cc2ccc(O)cc2)NC(=O)[C@H](C)NC1=O)[C@@H](C)O [compound 99] (Ac-LTF[R8]AY[Trp(6-Cl)]AQL[S5]SAA-NH2; staple (E) 4-11)
6.25 uM % Lysed cells (1 h LDH) (SJSA-1 cells): 1.5%
25 uM % Lysed cells (1 h LDH) (SJSA-1 cells): 2%
50 uM % Lysed cells (1 h LDH) (SJSA-1 cells): 3.5%
IC50 (MDM2; read-out: IC50 (MDM2)): < 10 nM
Ki (MDM2; read-out: Ki (MDM2)): < 10 nM
IC50 (MDMX; read-out: IC50 (MDMX)): 100 to 1000 nM
Ki (MDMX; read-out: Ki (MDMX)): 10 to 100 nM
caspase 0.3 uM (Caspase 3): 1
caspase 3 uM (Caspase 3): 7
caspase 10 uM (Caspase 3): 31
caspase 30 uM (Caspase 3): 33

Continued, in another order:

IC50 (MDM2; read-out: IC50 (MDM2)): 10 to 100 nM
Ki (MDM2; read-out: Ki (MDM2)): < 10 nM
IC50 (MDMX; read-out: IC50 (MDMX)): 10 to 100 nM
Ki (MDMX; read-out: Ki (MDMX)): 10 to 100 nM
SMILES: CCCC[C@H](NC(=O)[C@H](C)NC(=O)[C@H](CO)NC(=O)[C@]1(C)CCCC=CCCCCCC[C@@](C)(NC(=O)[C@H](Cc2ccc(F)c(F)c2)NC(=O)[C@@H](NC(=O)[C@H](CC(C)C)NC(C)=O)[C@@H](C)O)C(=O)N[C@@H](CCC(=O)O)C(=O)N[C@@H](Cc2ccc(O)cc2)C(=O)N[C@@H](Cc2c[nH]c3ccccc23)C(=O)N[C@@H](C)C(=O)N[C@@H](CCC(N)=O)C(=O)N[C@@H](CC2CCC2)C(=O)N1)C(=O)N[C@@H](C)C(N)=O [compound 243] (Ac-LT[Phe(3,4-F2)][R8]EYWAQ[Cba][S5]SA[Nle]A-NH2; staple 4-11)
6.25 uM % Lysed cells (1 h LDH) (SJSA-1 cells): 4%
25 uM % Lysed cells (1 h LDH) (SJSA-1 cells): 39%
50 uM % Lysed cells (1 h LDH) (SJSA-1 cells): 64%
caspase 0.3 uM (Caspase 3): 1
caspase 3 uM (Caspase 3): 2
caspase 10 uM (Caspase 3): 5
caspase 30 uM (Caspase 3): 23

IC50 (MDM2; read-out: IC50 (MDM2)): < 10 nM
Ki (MDM2; read-out: Ki (MDM2)): < 10 nM
IC50 (MDMX; read-out: IC50 (MDMX)): 10 to 100 nM
Ki (MDMX; read-out: Ki (MDMX)): < 10 nM
SMILES: CC(=O)N[C@@H](CC(C)C)C(=O)N[C@H](C(=O)N[C@@H](Cc1ccccc1)C(=O)N[C@]1(C)CCCCCC/C=C/CCC[C@@](C)(C(=O)N[C@@H](C)C(=O)N[C@@H](C)C(=O)N[C@@H](C)C(=O)N[C@@H](C)C(=O)N[C@@H](C)C(=O)N[C@H](C)C(N)=O)NC(=O)[C@H](CC2CCC2)NC(=O)[C@H](CCC(N)=O)NC(=O)[C@H](CO)NC(=O)[C@H](Cc2c[nH]c3ccccc23)NC(=O)[C@H](Cc2ccc(O)cc2)NC(=O)[C@H](CCC(=O)O)NC1=O)[C@@H](C)O [compound 351] (Ac-LTF[R8]EYWSQ[Cba][S5]AAAAA[dA]-NH2; staple (E) 4-11)
6.25 uM % Lysed cells (1 h LDH) (SJSA-1 cells): 0%
25 uM % Lysed cells (1 h LDH) (SJSA-1 cells): 0%
50 uM % Lysed cells (1 h LDH) (SJSA-1 cells): 0%
caspase 0.3 uM (Caspase 3): 3
caspase 1 uM (Caspase 3): 9
caspase 3 uM (Caspase 3): 13
caspase 10 uM (Caspase 3): 15
caspase 30 uM (Caspase 3): 24

IC50 (MDM2; read-out: IC50 (MDM2)): < 10 nM
Ki (MDM2; read-out: Ki (MDM2)): < 10 nM
IC50 (MDMX; read-out: IC50 (MDMX)): 10 to 100 nM
Ki (MDMX; read-out: Ki (MDMX)): 10 to 100 nM
SMILES: CC(=O)N[C@@H](CC(C)C)C(=O)N[C@H](C(=O)N[C@@H](Cc1ccccc1)C(=O)N[C@]1(C)CCCCCCC=CCCC[C@@](C)(C(=O)N[C@@H](C)C(=O)N[C@@H](C)C(=O)N[C@H](C(=O)N[C@H](C)C(N)=O)C(C)C)NC(=O)[C@H](CC(C)C)NC(=O)[C@H](CCC(N)=O)NC(=O)[C@H](C)NC(=O)[C@H](Cc2c[nH]c3ccccc23)NC(=O)[C@H](Cc2ccc(O)cc2)NC(=O)[C@H](CCC(=O)O)NC1=O)[C@@H](C)O (single isomer, unassigned) [compound 221]
6.25 uM % Lysed cells (1 h LDH) (SJSA-1 cells): 3%
25 uM % Lysed cells (1 h LDH) (SJSA-1 cells): 3%
50 uM % Lysed cells (1 h LDH) (SJSA-1 cells): 11%
caspase 0.3 uM (Caspase 3): 1
caspase 3 uM (Caspase 3): 3
caspase 10 uM (Caspase 3): 6
caspase 30 uM (Caspase 3): 12
